This is an account of results in ChEMBL document CHEMBL1201862, “PubChem BioAssay data set” (2004).

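Test compounds were applied to cells in 96-well plates for 48 hours at 5 doses. GI50 marks 50% less growth.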 Calls of active or inactive are those of the source. Cut-off read from the data, not from the text of the source: active = GI50 up to about 1.1 µM and inactive = higher.

Test systems include 786-0; CCRF-CEM; COLO 205; DLD-1; HCC 2998; HL-60; HOP-92; IGROV-1; MCF7; MDA-MB-231; NCI-H522; OVCAR-8; RPMI-8226; RXF 393; SF-539; SNB-19; UACC-257; UO-31; OVCAR-4; BT-549.
Holding throughout (assay): NCI tumour cell line growth inhibition, 48 h

In the case of `CCN(CC)CC(C)(C)C(=O)/C=C/c1ccc(/C=C/C(=O)C(C)(C)CN(CC)CC)cc1`, the GI50 in the test with 786-0 is 0.182 µM (active); with CCRF-CEM, 0.0646 µM (active); in the test on COLO 205, 0.339 µM (active); with DLD-1 it was 0.341 µM (active); with HCC 2998 it was 0.333 µM (active); in the test with HL-60 it was 0.0499 µM (active). Also, the GI50 in the test on HOP-92 was 0.397 µM (active); in the test on IGROV-1 it was 1.27 µM (inactive); in the test with MCF7 it was 0.233 µM (active); in the test on MDA-MB-231, 0.206 µM (active); in the test with NCI-H522, 0.104 µM (active); with OVCAR-8 it was 0.259 µM (active). Moreover, the GI50 with RPMI-8226 was 0.157 µM (active); in the test with RXF 393 it was 0.233 µM (active); in the test with SF-539, 1.2 µM (inactive); in the test with SNB-19, 1.53 µM (inactive); in the test with UACC-257, 1.62 µM (inactive); with UO-31, 1.8 µM (inactive).
For the molecule `CCOc1ccccc1Nc1nc(C)c(C(=O)CC(=O)C(=O)Nc2ccccc2)s1`, the GI50 in the test with 786-0 is 99.8 µM (inactive); with CCRF-CEM it was 39.1 µM (inactive); with COLO 205, 49.3 µM (inactive); with DLD-1 it was 37.3 µM (inactive); with HCC 2998, 52.7 µM (inactive); in the test on HL-60 it was 20.3 µM (inactive). The GI50 is 36.6 µM (inactive) in the test on HOP-92; > 100 µM (inactive) with IGROV-1; 30.9 µM (inactive) in the test with NCI-H522; 11 µM (inactive) in the test with OVCAR-4; 78.9 µM (inactive) in the test on OVCAR-8; 99.1 µM (inactive) in the test with RXF 393. The GI50 was > 100 µM (inactive) in the test with SF-539, 91.8 µM (inactive) with SNB-19, 50.9 µM (inactive) with UACC-257 and 32.2 µM (inactive) in the test with UO-31.
Consider `Cn1nc2ccc3nccc(NCCNCCO)c3c2n1`, for which the GI50 was 38.5 µM (inactive) in the test with 786-0; > 100 µM (inactive) with CCRF-CEM; 17.5 µM (inactive) in the test with COLO 205; 33.2 µM (inactive) in the test with DLD-1; 40.6 µM (inactive) in the test with HCC 2998; > 100 µM (inactive) in the test on HL-60. For the same molecule, the GI50 with HOP-92 is 36.3 µM (inactive); with IGROV-1, 68.4 µM (inactive); with NCI-H522, 37.5 µM (inactive); with OVCAR-4 it was 40.9 µM (inactive); with OVCAR-8 it was 36.4 µM (inactive); in the test on RPMI-8226 it was 26.9 µM (inactive). For the same molecule, the GI50 was 23.7 µM (inactive) in the test on RXF 393; 33.6 µM (inactive) in the test on SF-539; 73.5 µM (inactive) with SNB-19; 27.3 µM (inactive) with UACC-257; 25.8 µM (inactive) in the test with UO-31.
For `N#Cc1cc([N+](=O)[O-])ccc1NC(=O)C(=O)Nn1c(S)nc2ccccc2c1=O`, the GI50 in the test with 786-0, with CCRF-CEM, in the test on COLO 205, in the test with DLD-1, in the test on HCC 2998 and with HL-60 was > 100 µM (inactive) in each case. Further, the GI50 with HOP-92, in the test with IGROV-1, with NCI-H522, in the test on OVCAR-4, in the test with OVCAR-8 and in the test on RPMI-8226 was > 100 µM (inactive) each time. Also, the GI50 in the test with RXF 393, in the test with SF-539, with SNB-19, in the test on UACC-257 and in the test with UO-31 was > 100 µM (inactive) in each case.
On to `CC1=C(C(=O)Nc2ccccc2)C(c2ccc(N(C)C)cc2)C(C(=O)Nc2ccccc2)=C(C)N1`, for which the GI50 with 786-0 is 29.6 µM (inactive); in the test on CCRF-CEM it was 3.94 µM (inactive); with COLO 205 it was 1.41 µM (inactive); in the test on DLD-1 it was 8.36 µM (inactive); in the test on HCC 2998 it was 2.86 µM (inactive); in the test on HL-60 it was 5.3 µM (inactive). In addition, the GI50 is 65.9 µM (inactive) with HOP-92; 16.9 µM (inactive) in the test on IGROV-1; 10.3 µM (inactive) with MCF7; 29.1 µM (inactive) in the test on MDA-MB-231; 6.64 µM (inactive) in the test with NCI-H522; 50.8 µM (inactive) in the test on OVCAR-4. Moreover, the GI50 with OVCAR-8 is 11.9 µM (inactive); in the test on RPMI-8226, 3.13 µM (inactive); in the test on RXF 393, > 85.1 µM (inactive); in the test with SF-539, 9.59 µM (inactive); with SNB-19 it was 64.3 µM (inactive); in the test on UACC-257, 8.32 µM (inactive). Further, the GI50 in the test with UO-31 is 2.37 µM (inactive).
Consider `NNC(=O)C(=O)N/N=C1/CCCC1C(=O)CCC(=O)Nc1ccc(Cl)cc1` (configuration not stated), for which the GI50 in the test on 786-0, in the test on CCRF-CEM, in the test with COLO 205, in the test with DLD-1, in the test on HCC 2998 and with HL-60 was > 100 µM (inactive) in each case. In addition, the GI50 in the test with HOP-92, with IGROV-1, in the test on NCI-H522, in the test with OVCAR-4, with OVCAR-8 and in the test on RPMI-8226 was > 100 µM (inactive) each time. For the same molecule, the GI50 with RXF 393, in the test with SF-539, in the test on SNB-19, with UACC-257 and with UO-31 was > 100 µM (inactive) throughout.
As to `Cc1cccc(C(C)C)c1NC(=O)CCl`, the GI50 in the test on 786-0 is 53.8 µM (inactive); with CCRF-CEM it was 30.5 µM (inactive); in the test with COLO 205 it was 86.9 µM (inactive); in the test on DLD-1, 65 µM (inactive); with HCC 2998, 29.6 µM (inactive); in the test with HL-60, 39.9 µM (inactive). Further, the GI50 with HOP-92 is 28.6 µM (inactive); in the test on NCI-H522, 15.3 µM (inactive); in the test with OVCAR-4, 29.4 µM (inactive); in the test with RPMI-8226, 86.7 µM (inactive); in the test on RXF 393, 25.2 µM (inactive); in the test with SF-539, > 100 µM (inactive). Further, the GI50 with SNB-19 was 36.5 µM (inactive); with UACC-257, > 100 µM (inactive); in the test on UO-31, > 100 µM (inactive).
For the molecule `COc1ccc(NC(=O)C2C(=O)N(c3ccc(OC)cc3)C(=O)/C2=N/O)cc1` (configuration not stated), the GI50 was 20.1 µM (inactive) in the test on 786-0; > 100 µM (inactive) in the test with CCRF-CEM; > 100 µM (inactive) with COLO 205; 64.4 µM (inactive) in the test with DLD-1; 21 µM (inactive) in the test on HCC 2998; > 100 µM (inactive) with HL-60. The GI50 in the test with HOP-92 was 16.1 µM (inactive); in the test with IGROV-1, 40.1 µM (inactive); in the test with NCI-H522 it was 22.7 µM (inactive); with OVCAR-4, 17.2 µM (inactive); in the test on OVCAR-8, 18 µM (inactive); in the test with RPMI-8226, > 71.9 µM (inactive). Also, the GI50 with RXF 393 was 15.3 µM (inactive); in the test with SF-539, 19.6 µM (inactive); in the test on SNB-19 it was 29.4 µM (inactive); in the test with UACC-257 it was 41.6 µM (inactive); with UO-31 it was 22.2 µM (inactive).
As to `CC(=O)/C(=N\O)C(=O)NCc1ccccc1`, the GI50 in the test with 786-0 was > 100 µM (inactive); with CCRF-CEM, > 100 µM (inactive); in the test on COLO 205 it was 58.9 µM (inactive); in the test on DLD-1, > 100 µM (inactive); in the test on HCC 2998, > 100 µM (inactive); with HL-60, > 100 µM (inactive). Moreover, the GI50 in the test on HOP-92, in the test on IGROV-1, in the test on NCI-H522, in the test with OVCAR-8, in the test with RPMI-8226 and in the test with RXF 393 was > 100 µM (inactive) throughout. The GI50 in the test with SF-539, in the test with SNB-19, in the test with UACC-257 and in the test with UO-31 was > 100 µM (inactive) throughout.
Turning to `[O-][S+](c1ccc(O)cc1)c1ccc(O)cc1`, the GI50 in the test with 786-0, with CCRF-CEM, in the test on COLO 205, with DLD-1, in the test with HCC 2998 and in the test on HL-60 was > 100 µM (inactive) in each case. Moreover, the GI50 with HOP-92, in the test with IGROV-1, in the test with NCI-H522, in the test with OVCAR-4, in the test on RPMI-8226 and with RXF 393 was > 100 µM (inactive) each time. In addition, the GI50 with SF-539, with SNB-19, with UACC-257 and with UO-31 was > 100 µM (inactive) each time.
For the molecule `CCCCCCCCCC[C@@H](O)[C@@H]1CC[C@@H]([C@@H]2CC[C@@H]([C@@H](O)CCCCCCCCCC[C@H](O)CC3=CC(C)OC3=O)O2)O1` (some centres not stated), the GI50 with 786-0 was 3.74 µM (inactive); with BT-549, 4.23 µM (inactive); with CCRF-CEM, 1.5 µM (inactive); with COLO 205, 3.94 µM (inactive); in the test with DLD-1, 3.31 µM (inactive); in the test on HCC 2998, 4.31 µM (inactive). Moreover, the GI50 is 0.102 µM (active) in the test on HL-60; 2.26 µM (inactive) in the test with HOP-92; 3.48 µM (inactive) in the test with IGROV-1; 1.44 µM (inactive) in the test with MCF7; 1.72 µM (inactive) in the test with NCI-H522; 6.28 µM (inactive) in the test on OVCAR-4. For the same molecule, the GI50 in the test on OVCAR-8 was 2.65 µM (inactive); in the test with RPMI-8226, 1.26 µM (inactive); in the test on RXF 393, 3.22 µM (inactive); in the test with SF-539 it was 4.5 µM (inactive); in the test on SNB-19 it was 4.6 µM (inactive); in the test with UACC-257 it was 0.356 µM (active). Further, the GI50 in the test with UO-31 is 1.25 µM (inactive).
